Drawing on patent US11319318B2, “Pyridinones and isoquinolinones as inhibitors of the bromodomain BRD9” (Boehringer Ingelheim International GmbH, priority 2015, dated 2022), this text covers IC50 for 53 compounds.

Molecules are shown by their SMILES.

For the test, the target named is T1, bromodomain of BRD9 (GST fusion) / acetylated histone H4 peptide (BET Bromodomain Ligand) (Homo sapiens, UniProt Q9H8M2).
T1 construct: A GST fusion protein of the bromodomain of BRD9; purchased BPS Biosciences #32519
T1 sequence (Q9H8M2 136-240 limits assumed): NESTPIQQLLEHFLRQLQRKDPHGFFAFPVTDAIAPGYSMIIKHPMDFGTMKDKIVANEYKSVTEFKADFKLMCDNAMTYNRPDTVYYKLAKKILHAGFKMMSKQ
Briefly: BRD9-H4 Tetraacetylated Peptide Inhibition AlphaScreen. It counts as binding. From the text: BRD9-H4 Tetraacetylated Peptide Inhibition AlphaScreen
This assay is used to identify compounds which inhibit the interaction of the bromodomain of BRD9 with a tetra-acetylated peptide based on the sequence of histone H4 (termed the “BET Bromodomain ligand” as purchased from BPS Biosciences).
A GST fusion protein of the bromodomain of BRD9 and an acetylated histone H4 peptide (the “BET Bromodomain Ligand” are purchased as part of the BRD9 Inhibitor Screening Assay Kit at BPS Biosciences (Cat. Number: #32519)
AlphaScreen Beads (Perkin Elmer):
AlphaLISA Glutathione Acceptor Beads
AlphaScreen Streptavidin Donor Beads
Assay plates: Proxiplate-384 PLUS, white (PerkinElmer)
The assay is done in a darkened room below 100 Lux.
Compounds are dispensed onto assay plates using an Access Labcyte Workstation with the Labcyte Echo 550 from a DMSO solution. For the chosen highest concentration of 100 μM, 150 nl of compound solution are transferred from a 10 mM DMSO solution. A series of 11 concentrations is transferred for each compound at which each concentration is five-fold lower than the previous one (i.e. 100 μM, 20 μM, 4 μM, 0.8 μM, etc). DMSO is added such that every well has a total of 150 nl of DMSO.
15 μl of the resulting mix are added to the assay plates that contain 150 nl of the compounds. After 60 min at room temperature the signal is measured in a PerkinElmer Envision HTS Multilabel Reader using the AlphaScreen specifications from PerkinElmer.
Each plate contains negative controls where biotinylated BET Bromodomain Ligand and GST-BRD9 are left out and replaced by assay buffer. Negative control values are entered as low basis value when using the software GraphPad Prism for calculations.
For orientation: In Alpha technology, singlet oxygen from a donor bead excites a nearby acceptor bead.
On to `CN1CCN(C(=O)c2ccc(-c3cc(C(F)F)c(=O)n(C)c3)cc2)CC1` [Compound I-27], for which the IC50 (usually the point on the concentration scale where inhibition reaches its midpoint) came out at 705 nM.
As for `Cc1ccc(-c2cc(C)c(=O)n(C3CC3)c2)cc1NS(C)(=O)=O` [Compound I-28], the figure is 5120 nM; as for `Cc1ccc(-c2cc(N)c(=O)n(C)c2)cc1NS(C)(=O)=O` [Compound I-29], 4220 nM; as for `Cc1cc(-c2ccc(C(=O)NC3CCN(C)CC3)cc2)cn(C)c1=O` [Compound I-30, 4-(1,5-Dimethyl-6-oxo-1,6-dihydro-pyridin-3-yl)-N-(1-methyl-piperidin-4-yl)-benzamide], 444 nM.
With `CNc1cc(-c2ccc(C)c(NS(C)(=O)=O)c2)cn(C)c1=O` [Compound I-32, N-[2-Methyl-5-(1-methyl-5-methylamino-6-oxo-1,6-dihydro-pyridin-3-yl)-phenyl]-methanesulfonamide] the figure was 2030 nM; with `Cc1cc(-c2cc(C)c(=O)n(C)c2)ccc1CN1CCNCC1` [Compound I-33, 1,3-Dimethyl-5-(3-methyl-4-piperazin-1-ylmethyl-phenyl)-1H-pyridin-2-one], 22 nM.
In turn, `Cc1cc(-c2cc(C)c(=O)n(C)c2)ccc1CN1CCN(C)CC1` [Compound I-34] showed an IC50 of 17 nM.
As for `Cc1cc(-c2cc(C)c(=O)n(C)c2)ccc1CN(C)C` [Compound I-35], the figure is 47 nM; as for `CNCc1ccc(-c2cc(C)c(=O)n(C)c2)cc1C` [Compound I-36], 42 nM; as for `Cc1cc(-c2ccc(C(=O)N3CCNCC3)cc2)cn(C)c1=O` [Compound I-37, 1,3-Dimethyl-5-[4-(piperazine-1-carbonyl)-phenyl]-1H-pyridin-2-one], 34 nM.
As for `Cc1cc(-c2ccc(C(=O)N3CC4CCC3C4)cc2)cn(C)c1=O` (centres unmarked) [Compound I-38], the figure is 256 nM; as for `Cc1cc(-c2ccc(C(=O)N3CC(O)C3)cc2)cn(C)c1=O` [Compound I-39], 294 nM.
With `Cc1cc(-c2ccc(C(=O)N3CCCC3)cc2)cn(C)c1=O` [Compound I-40] the figure was 496 nM; with `Cc1ccc(-c2cc(C)c(=O)n(C)c2)cc1NCc1cccnc1` [Compound I-42, 1,3-Dimethyl-5-{4-methyl-3-[(pyridin-3-ylmethyl)-amino]-phenyl}-1H-pyridin-2-one], 470 nM.
In turn, `CN1CCN(C(=O)c2ccc(-c3cc(I)c(=O)n(C)c3)cc2)CC1` [Compound I-43, 3-Iodo-1-methyl-5-[4-(4-methyl-piperazine-1-carbonyl)-phenyl]-1H-pyridin-2-one] showed an IC50 of 65 nM.
`CN1CCN(C(=O)c2ccc(-c3cc(Br)c(=O)n(C)c3)cc2)CC1` [Compound I-44]: the IC50 is 508 nM.
With `CN1CCN(C(=O)c2ccc(-c3cc(O)c(=O)n(C)c3)cc2)CC1` [Compound I-45, 3-Hydroxy-1-methyl-5-[4-(4-methyl-piperazine-1-carbonyl)-phenyl]-1H-pyridin-2-one] the figure was 2090 nM.
With `Cc1cc(-c2ccc(C3(N)CC3)cc2)cn(C)c1=O` [Compound I-69] the figure was 15 nM; with `Cc1cc(-c2ccc(CN)cc2)cn(C)c1=O` [Compound I-78], 130 nM.
As for `Cc1cc(-c2ccc(CN3CCNCC3)cc2)cn(C)c1=O` [Compound I-79], the IC50 turned out to be 60 nM.
With `Cc1cc(-c2ccc(CN3CCN(C)CC3)cc2)cn(C)c1=O` [Compound I-88] the figure was 78 nM.
As for `COc1cc(-c2cc(C)c(=O)n(C)c2)ccc1C(=O)N1CCN(C)CC1` [Compound I-89, 5-[3-methoxy-4-(4-methyl-piperazine-1-carbonyl)-phenyl]-1,3-dimethyl-1H-pyridin-2-one], the figure is 70 nM; as for `Cc1cc(-c2ccc(N)cc2)cn(C)c1=O` [Compound I-91], 128 nM.
On to `Cc1cc(-c2ccc([C@H](C)N)cc2)cn(C)c1=O` [Compound I-93], for which half-maximal inhibition (IC50) was put at 112 nM.
With `Cc1cc(-c2ccc([C@@H](C)N)cc2)cn(C)c1=O` [Compound I-94] the figure was 334 nM; with `Cc1cc(-c2ccc(C(=O)c3cncnc3)cc2)cn(C)c1=O` [Compound I-97], 267 nM; with `Cc1cc(-c2ccc(C(=O)c3c(Cl)ncnc3Cl)cc2)cn(C)c1=O` [Compound I-100], 50 nM.
`Cc1cc(-c2cccc(OC(F)F)c2)cn(C)c1=O` [Compound I-101] had an IC50 of 503 nM.
As for `COc1cc(-c2cc(C)c(=O)n(C)c2)ccc1C(=O)N1CCNCC1` [Compound I-158], the figure is 19 nM; as for `Cc1cc(-c2cc(C)c(=O)n(C)c2)cc(C)c1C(=O)N1CCNCC1` [Compound I-160], 33 nM.
As for `COc1cc(C(=O)N2CCNCC2)ccc1-c1cc(C)c(=O)n(C)c1` [Compound I-161], the figure is 32 nM.
On to `Cc1cc(-c2cc(C)c(=O)n(C)c2)ccc1C(=O)N1CCNCC1` [Compound I-162], for which half-maximal inhibition (IC50) was put at 33 nM.
With `CCS(=O)(=O)Cc1cc(-c2cc(C)c(=O)n(C)c2)ccc1C(=O)N1CCNCC1` [Compound I-169, 5-[3-Ethanesulfonylmethyl-4-(piperazine-1-carbonyl)-phenyl]-1,3-dimethyl-1H-pyridin-2-one] the figure was 29 nM.
The compound `Cc1cc(-c2ccc(C(=O)N3CCNCC3)c(CS(C)(=O)=O)c2)cn(C)c1=O` [Compound I-170] registered an IC50 of 29 nM.
Regarding `Cc1cc(-c2ccc(C(=O)N3CCN(C)CC3)c(CS(C)(=O)=O)c2)cn(C)c1=O` [Compound I-171], 103 nM corresponded to half-maximal inhibition (IC50). This IC50 is about 3.6-fold higher than that of the compound before.
Compound `CCS(=O)(=O)Cc1cc(-c2cc(C)c(=O)n(C)c2)ccc1C(=O)N(C)C` [Compound I-172] registered an IC50 of 294 nM.
For the compound `COc1cc(C(=O)N2CCN(C)CC2)ccc1-c1cc(C)c(=O)n(C)c1` [Compound I-173, 5-[2-Methoxy-4-(4-methyl-piperazine-1-carbonyl)-phenyl]-1,3-dimethyl-1H-pyridin-2-one], half-maximal inhibition (IC50) was put at 151 nM. This IC50 lies about 1.9-fold lower than the previous one.
With `Cc1cc(-c2cc(C)c(=O)n(C)c2)ccc1C(=O)N1CCN(C)CC1` [Compound I-174] the figure was 106 nM; with `Cc1cc(-c2ccc(C(=O)N3CCN(C)CC3)c3ccccc23)cn(C)c1=O` [Compound I-175], 135 nM.
As for `Cc1cc(-c2ccc(C(=O)N3CCN(C)CC3)c(Cl)c2)cn(C)c1=O` [Compound I-176], the figure is 204 nM.
As for `Cc1cc(-c2ccc(C(=O)N3CCN(C)CC3)c(O)c2)cn(C)c1=O` [Compound I-188, 5-[3-Hydroxy-4-(4-methyl-piperazine-1-carbonyl)-phenyl]-1,3-dimethyl-1H-pyridin-2-one], the figure is 270 nM.
Regarding `Cc1cc(-c2ccc(CN3C[C@@H]4C[C@H]3CN4)cc2)cn(C)c1=O` [Compound I-189, 5-{4-[(S)-1-(2,5-Diaza-bicyclo[2.2.1]hept-2-yl)methyl]-phenyl}-1,3-dimethyl-1H-pyridin-2-one], half-maximal inhibition (IC50) required 23 nM. Compared with the last compound, the IC50 is about 12-fold lower.
As for `COc1cc(-c2cc(C)c(=O)n(C)c2)ccc1CN1CCNCC1` [Compound I-190, 5-(3-methoxy-4-piperazin-1-ylmethyl-phenyl)-1,3-dimethyl-1H-pyridin-2-one], the figure is 21 nM; as for `COc1cc(-c2cc(C)c(=O)n(C)c2)ccc1CN1CCN(C)CC1` [Compound I-191, 5-[3-methoxy-4-(4-methyl-piperazin-1-ylmethyl)-phenyl]-1,3-dimethyl-1H-pyridin-2-one], 3 nM.
As for `CNCc1ccc(-c2cc(C)c(=O)n(C)c2)cc1OC` [Compound I-192], the figure is 33 nM.
As for `CN1CCN(C(=O)c2ccc(-c3cn(C)c(=O)c4ccccc34)cc2)CC1` [II-4], inhibition was half-maximal at 86 nM (IC50). Compared with the last compound, the IC50 is about 2.6-fold higher.
Turning to `CCn1cc(-c2ccc(C(=O)N3CCN(C)CC3)cc2)c2ccccc2c1=O` [II-15], the IC50 was 398 nM.
As for `CCn1cc(-c2ccc(C(=O)N(C)C)cc2)c2ccccc2c1=O` [II-16], the figure is 983 nM; as for `CN1CCN(C(=O)c2ccc(-c3cn(C4CC4)c(=O)c4ccccc34)cc2)CC1` [II-18], 984 nM; as for `Cc1ccc(-c2cn(C)c(=O)c3cccc(F)c23)cc1NS(C)(=O)=O` [II-27], 1160 nM.
With `Cc1ccc(-c2cn(C)c(=O)c3cccc(C)c23)cc1NS(C)(=O)=O` [II-28, N-[5-(2,5-Dimethyl-1-oxo-1,2-dihydro-isoquinolin-4-yl)-2-methyl-phenyl]-methanesulfonamide] the figure was 923 nM.
With `Cc1ccc(-c2cn(C)c(=O)c3ccccc23)cc1NS(C)(=O)=O` [II-29] the figure was 239 nM.
The compound `CCS(=O)(=O)Nc1cc(-c2cn(C)c(=O)c3ccccc23)ccc1C` [II-35, Ethanesulfonic acid [2-methyl-5-(2-methyl-1-oxo-1,2-dihydro-isoquinolin-4-yl)-phenyl]-amide] displayed a 50% inhibitory concentration (IC50) of 293 nM.
